# Test results from US20250262211A1, “COMBINATION OF RAS INHIBITORS AND […] INHIBITORS FOR THE TREATMENT OF CANCERS” (INSTITUT NATIONAL DE LA SANTÉ ET DE LA RECHERCHE MÉDICALE, priority 2022, published 2025).
# Legend:
# Assay type in all cases: cell-based
# [1] = tested on: H23 KRAS (G12C)-mutant non-small cell lung cancer (NSCLC) cell line; test: FUCCI-transduced H23 cells, response/relapse monitored by Incucyte during 50 days; details: H23, 50 days
# [2] = tested on: Calu-1 KRAS (G12C)-mutant non-small cell lung cancer (NSCLC) cell line; test: FUCCI-transduced Calu-1 cells, response/relapse monitored by Incucyte during 50 days; details: Calu-1, 50 days
# [3] = tested on: H23 cells (KRas G12C); test: Cell confluency of H23 cells under treatment, Incucyte Live-Cell Analysis / amidoblack staining; details: drug used alone, 1 μM, 35 days
# Description: FIG. 1. […] A. Cell confluency was measured twice a week over 35 days of indicated treatments. B. Amidoblack staining of a 6-well plate after 35 of indicated treatments.
# Medium was changed twice a week and cell confluency was monitored by Incucyte® Live-Cell Analysis System.
# [4] = 1 μM tipifarnib added to 1 μM sotorasib
Structure (SMILES),emergence of resistant proliferative clones (total cell number) ([1]; 1 μM sotorasib alone),emergence of resistant proliferative clones (total cell number) ([2]; 1 μM sotorasib alone),anti-tumor effect (cell confluency) [3],"cell cycle dynamics [1, 4]","emergence of resistant proliferative clones (total cell number) [1, 4]","cell cycle dynamics [2, 4]","emergence of resistant proliferative clones (total cell number) [2, 4]"
"C=CC(=O)N1CCN(c2nc(=O)n(-c3c(C)ccnc3C(C)C)c3nc(-c4c(O)cccc4F)c(F)cc23)[C@@H](C)C1 [sotorasib, 6-fluoro-7-(2-fluoro-6-hydroxyphenyl)-1-[4-methyl-2-(propan-2-yl)pyridin-3-yl]-4-[(2S)-2-methyl-4-(prop-2-enoyl)piperazin-1-yl]-1H,2H-pyrido[2,3-d]pyrimidin-2-one]",developed resistant proliferative clones (RPC),developed resistant proliferative clones (RPC),did not show a significant anti-tumor effect,–,–,–,–
"Cn1cncc1[C@@](N)(c1ccc(Cl)cc1)c1ccc2c(c1)c(-c1cccc(Cl)c1)cc(=O)n2C [tipifarnib, (R)-6-[amino (4-chlorophenyl) (1-methyl-1H-imidazol-5-yl)methyl]-4-(3-chlorophenyl)-1-methyl-2 (1H)-quinolinone]",–,–,did not show a significant anti-tumor effect,"strongly impacting cell cycle dynamics, resulting in cell death",prevented the emergence of RPC,"strongly impacting cell cycle dynamics, resulting in cell death",prevented the emergence of RPC
